Laboratory results: US9447122B2, “Arginase inhibitors and methods of use thereof” (AstraZeneca AB, priority 2010, dated 2016)

molecular target: T1, human arginase I (Homo sapiens, UniProt P05089); experiment: Arginase inhibition, QuantiChrom colorimetric urea assay, IC50 converted to Ki; type: biochemical; conditions: Table 2; pH 7.5; read-out: human arginase I pH 7.5, Ki assigned value
T1 sequence (P05089 1-322): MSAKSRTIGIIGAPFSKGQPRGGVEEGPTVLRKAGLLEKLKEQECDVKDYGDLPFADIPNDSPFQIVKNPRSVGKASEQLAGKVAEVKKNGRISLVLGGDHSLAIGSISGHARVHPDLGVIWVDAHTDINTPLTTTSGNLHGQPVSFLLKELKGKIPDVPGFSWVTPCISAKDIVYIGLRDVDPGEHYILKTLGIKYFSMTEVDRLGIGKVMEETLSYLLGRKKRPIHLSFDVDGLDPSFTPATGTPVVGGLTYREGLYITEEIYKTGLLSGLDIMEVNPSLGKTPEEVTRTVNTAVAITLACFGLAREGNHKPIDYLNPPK
Procedure: (§1) For some compounds, their inhibitory potency at pH 7.5 was compared to the inhibitory potency of ABH at pH 7.5.
(§2) Quantitative determination of arginase activity was performed in a 96-well format by a colorimetric method using the QuantiChrom™ Arginase Assay Kit available from BioAssay Systems (Hayward, Calif., Catalog No. DARG-200) according to the manufacturer's protocol. Modifications were made to reagent quantities to suit the assaying of a highly purified sample.
(§3) The intensity of the color was directly proportional to the arginase activity in the sample.
(§4) The rate of urea production was measured in the presence of twelve different concentrations of each potential inhibitor compound. In a typical assay, seven different compounds were tested relative to a control inhibitor (e.g. ABH) against one enzyme (either human ArgI or human ArgII) at a particular pH (either 9.5 or 7.5). The pH of the solution was controlled using an appropriate pH buffering compound at 60 mM concentrations; for example, 60 mM glycine (pH 9.5) or 60 mM HEPES (pH 7.5). The half maximal inhibitory concentration (IC50) was determined by constructing a dose-response curve.

For `NC(CCCCB(O)O)(CCCN1CCN(Cc2ccc(F)cc2)CC1)C(=O)O` (stereo not shown) [Example 11], which Ki is on record?
The Ki was less than 0.01 µM.

Which Ki does the source give for `NC(CCCCB(O)O)(CCCN1CCCCC1c1ccc(F)cc1)C(=O)O` (stereo not shown) [Example 17] here?
The Ki was less than 0.01 µM.

Which Ki does the source give for `NC(CCCCB(O)O)(CCCN1CCC(Cc2ccc(F)c(F)c2)CC1)C(=O)O` (stereo not shown) [Example 28] here?
Its Ki is less than 0.01 µM.

same assay, conditions: Table 2; pH 9.5; read-out: human arginase I pH 9.5, Ki assigned value

How did the Ki turn out when `NC(CCCCB(O)O)(CCCN1CCN(Cc2ccc(F)cc2)CC1)C(=O)O` (stereo not shown) [Example 11] was run?
Its Ki is 0.011 to 0.05 µM.

`NC(CCCCB(O)O)(CCCN1CCCCC1c1ccc(F)cc1)C(=O)O` (stereo not shown) [Example 17] was tested. Which Ki did it give?
Its Ki is 0.011 to 0.05 µM.

With `NC(CCCCB(O)O)(CCCN1CCC(Cc2ccc(F)c(F)c2)CC1)C(=O)O` (stereo not shown) [Example 28] as the compound, how does the Ki read?
The Ki was less than 0.01 µM.

same assay, conditions: Table 3; pH 7.5; read-out: human Arginase I pH 7.5, Ki assigned value

For `NC(CCCCB(O)O)(CCCN1CCN(Cc2cccc(F)c2F)CC1)C(=O)O` (stereo not shown) [Example 7], which Ki is on record?
The Ki was less than 0.01 µM.

How did the Ki turn out when `NC(CCCCB(O)O)(CCCN1CCN(Cc2cccc(C(F)(F)F)c2)CC1)C(=O)O` (stereo not shown) [Example 9] was run?
Its Ki is less than 0.01 µM.

`NC(CCCCB(O)O)(CCCN1CCN(CCc2ccccc2)CC1)C(=O)O` (stereo not shown) [Example 14] was tested. Which Ki did it give?
Its Ki is less than 0.01 µM.

For `NC(CCCCB(O)O)(CCN1CCN(Cc2ccc(Cl)c(Cl)c2)CC1)C(=O)O` (stereo not shown) [Example 15], which Ki is on record?
The Ki was 0.101 to 0.25 µM.

Which Ki does the source give for `NC(CCCCB(O)O)(CCCN1CCN(c2ccc(Cl)c(Cl)c2)CC1)C(=O)O` (stereo not shown) [Example 16] here?
Its Ki is 0.011 to 0.05 µM.

For `NC(CCCCB(O)O)(CCC1CCCCN1Cc1cc(F)cc(F)c1)C(=O)O` (stereo not shown) [Example 20], which Ki is on record?
Its Ki is 0.011 to 0.05 µM.

With `NC(CCCCB(O)O)(CCC1CCCCN1Cc1ccc(F)c(F)c1)C(=O)O` (stereo not shown) [Example 21] as the compound, how does the Ki read?
Its Ki is 0.011 to 0.05 µM.

same assay, conditions: Table 3; pH 9.5; read-out: human Arginase I pH 9.5, Ki assigned value

With `NC(CCCCB(O)O)(CCCN1CCN(Cc2cccc(F)c2F)CC1)C(=O)O` (stereo not shown) [Example 7] as the compound, how does the Ki read?
The Ki was 0.011 to 0.05 µM.

For `NC(CCCCB(O)O)(CCCN1CCN(Cc2cccc(C(F)(F)F)c2)CC1)C(=O)O` (stereo not shown) [Example 9], which Ki is on record?
The Ki was 0.051 to 0.1 µM.

Which Ki does the source give for `NC(CCCCB(O)O)(CCCN1CCN(CCc2ccccc2)CC1)C(=O)O` (stereo not shown) [Example 14] here?
Its Ki is 0.011 to 0.05 µM.

How did the Ki turn out when `NC(CCCCB(O)O)(CCN1CCN(Cc2ccc(Cl)c(Cl)c2)CC1)C(=O)O` (stereo not shown) [Example 15] was run?
The Ki was 0.101 to 0.25 µM.

For `NC(CCCCB(O)O)(CCCN1CCN(c2ccc(Cl)c(Cl)c2)CC1)C(=O)O` (stereo not shown) [Example 16], which Ki is on record?
The Ki was 0.051 to 0.1 µM.

For `NC(CCCCB(O)O)(CCC1CCCCN1Cc1cc(F)cc(F)c1)C(=O)O` (stereo not shown) [Example 20], which Ki is on record?
Its Ki is 0.011 to 0.05 µM.

`NC(CCCCB(O)O)(CCC1CCCCN1Cc1ccc(F)c(F)c1)C(=O)O` (stereo not shown) [Example 21] was tested. Which Ki did it give?
The Ki was 0.011 to 0.05 µM.

molecular target: T2, human arginase II (Homo sapiens, UniProt P78540); experiment: as above; type: biochemical; conditions: Table 2; pH 7.5; read-out: human arginase II pH 7.5, Ki assigned value
T2 sequence (P78540 23-354): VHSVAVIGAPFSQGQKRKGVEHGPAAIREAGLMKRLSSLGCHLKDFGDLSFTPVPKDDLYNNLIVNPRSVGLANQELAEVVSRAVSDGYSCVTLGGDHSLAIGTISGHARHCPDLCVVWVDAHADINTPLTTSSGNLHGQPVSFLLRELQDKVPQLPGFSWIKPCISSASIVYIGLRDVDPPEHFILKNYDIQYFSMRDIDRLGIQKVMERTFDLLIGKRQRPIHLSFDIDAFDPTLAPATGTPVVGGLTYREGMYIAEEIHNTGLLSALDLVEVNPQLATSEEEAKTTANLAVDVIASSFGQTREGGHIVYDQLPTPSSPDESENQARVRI
Procedure: as §1, §2, §3, §4

For `NC(CCCCB(O)O)(CCCN1CCN(Cc2ccc(F)cc2)CC1)C(=O)O` (stereo not shown) [Example 11], which Ki is on record?
Its Ki is 0.011 to 0.05 µM.

For `NC(CCCCB(O)O)(CCCN1CCCCC1c1ccc(F)cc1)C(=O)O` (stereo not shown) [Example 17], which Ki is on record?
Its Ki is 0.101 to 0.25 µM.

For `NC(CCCCB(O)O)(CCCN1CCC(Cc2ccc(F)c(F)c2)CC1)C(=O)O` (stereo not shown) [Example 28], which Ki is on record?
The Ki was 0.051 to 0.1 µM.

same assay, conditions: Table 2; pH 9.5; read-out: human arginase II pH 9.5, Ki assigned value

With `NC(CCCCB(O)O)(CCCN1CCN(Cc2ccc(F)cc2)CC1)C(=O)O` (stereo not shown) [Example 11] as the compound, how does the Ki read?
Its Ki is 0.011 to 0.05 µM.

With `NC(CCCCB(O)O)(CCCN1CCCCC1c1ccc(F)cc1)C(=O)O` (stereo not shown) [Example 17] as the compound, how does the Ki read?
The Ki was 0.011 to 0.05 µM.

Which Ki does the source give for `NC(CCCCB(O)O)(CCCN1CCC(Cc2ccc(F)c(F)c2)CC1)C(=O)O` (stereo not shown) [Example 28] here?
The Ki was less than 0.01 µM.

same assay, conditions: Table 3; pH 7.5; read-out: human Arginase II pH 7.5, Ki assigned value

`NC(CCCCB(O)O)(CCCN1CCN(Cc2cccc(F)c2F)CC1)C(=O)O` (stereo not shown) [Example 7] was tested. Which Ki did it give?
The Ki was 0.011 to 0.05 µM.

Which Ki does the source give for `NC(CCCCB(O)O)(CCCN1CCN(Cc2cccc(C(F)(F)F)c2)CC1)C(=O)O` (stereo not shown) [Example 9] here?
The Ki was 0.011 to 0.05 µM.

For `NC(CCCCB(O)O)(CCCN1CCN(CCc2ccccc2)CC1)C(=O)O` (stereo not shown) [Example 14], which Ki is on record?
Its Ki is less than 0.01 µM.

For `NC(CCCCB(O)O)(CCN1CCN(Cc2ccc(Cl)c(Cl)c2)CC1)C(=O)O` (stereo not shown) [Example 15], which Ki is on record?
Its Ki is greater than 0.4 µM.

`NC(CCCCB(O)O)(CCCN1CCN(c2ccc(Cl)c(Cl)c2)CC1)C(=O)O` (stereo not shown) [Example 16] was tested. Which Ki did it give?
The Ki was 0.051 to 0.1 µM.

For `NC(CCCCB(O)O)(CCC1CCCCN1Cc1cc(F)cc(F)c1)C(=O)O` (stereo not shown) [Example 20], which Ki is on record?
Its Ki is 0.101 to 0.25 µM.

With `NC(CCCCB(O)O)(CCC1CCCCN1Cc1ccc(F)c(F)c1)C(=O)O` (stereo not shown) [Example 21] as the compound, how does the Ki read?
Its Ki is 0.051 to 0.1 µM.

same assay, conditions: Table 3; pH 9.5; read-out: human Arginase II pH 9.5, Ki assigned value

With `NC(CCCCB(O)O)(CCCN1CCN(Cc2cccc(F)c2F)CC1)C(=O)O` (stereo not shown) [Example 7] as the compound, how does the Ki read?
The Ki was 0.051 to 0.1 µM.

`NC(CCCCB(O)O)(CCCN1CCN(Cc2cccc(C(F)(F)F)c2)CC1)C(=O)O` (stereo not shown) [Example 9] was tested. Which Ki did it give?
The Ki was 0.011 to 0.05 µM.

`NC(CCCCB(O)O)(CCCN1CCN(CCc2ccccc2)CC1)C(=O)O` (stereo not shown) [Example 14] was tested. Which Ki did it give?
Its Ki is 0.011 to 0.05 µM.

`NC(CCCCB(O)O)(CCN1CCN(Cc2ccc(Cl)c(Cl)c2)CC1)C(=O)O` (stereo not shown) [Example 15] was tested. Which Ki did it give?
The Ki was 0.051 to 0.1 µM.

`NC(CCCCB(O)O)(CCCN1CCN(c2ccc(Cl)c(Cl)c2)CC1)C(=O)O` (stereo not shown) [Example 16] was tested. Which Ki did it give?
Its Ki is 0.011 to 0.05 µM.

With `NC(CCCCB(O)O)(CCC1CCCCN1Cc1cc(F)cc(F)c1)C(=O)O` (stereo not shown) [Example 20] as the compound, how does the Ki read?
The Ki was 0.101 to 0.25 µM.

`NC(CCCCB(O)O)(CCC1CCCCN1Cc1ccc(F)c(F)c1)C(=O)O` (stereo not shown) [Example 21] was tested. Which Ki did it give?
The Ki was 0.051 to 0.1 µM.
